One compound from patent publication US9725490B2, “ERAP1-derived peptide and use thereof” (TOKUSHIMA UNIVERSITY, priority 2011, dated 2017) can be followed below.

SMILES strings stand for the structures.

Common to all, as to assay type: cell-based, human
In assay [1] the test system is PHB2/REA (Ser39) phosphorylation. The assay is described as follows: Ser39 phosphorylation of PHB2/REA, MCF-7. The following applies: 10 μM. How it is done:
FIG. 26-1 is a diagram illustrating the results of evaluations for the phosphorylation in nuclear-translocated Ser39 of PHB2/REA. […] MCF-7 cells were treated with 10 μM ERAP1-peptide. Then, immediately, the cells were stimulated with 10 nM E2 for 24 hours. The cells were fractionated into cytoplasm and nuclear fractions by specific gravity centrifugation. Then, each fraction was immunoprecipitated with anti-PHB2/REA antibody. Then, the cells were lysed. Then, the immunoprecipitated protein and the cell lysate were subjected to immunoblotting analysis with the antibodies shown in the figure. […] Then, immediately, the cells were temporally stimulated with 10 nM E2. Each cell lysate was subjected to immunoblotting analysis with an anti-PHB2/REA antibody and an anti-phosphorylation PHB2/REA (S39) antibody. […] MCF-7 cells were treated with the ERAP1-peptide and λ-phosphatase (400 U) in the presence of 10 nM E2 for 24 hours. After the immobilization, the cells were subjected to immunofluorescent staring. […]
MCF-7 cells were seeded in an 8-well chamber (Laboratory-Tek II Chamber Slide System, Nalgen Nunc International, Naperville, Ill., USA) in 5×10^4 cells/well, and cultured under estrogen-free condition for 24 hours. […] The fluorescence image was obtained under Olympus IX71 microscope (Tokyo, Japan).

The subject of assay [2] is ERα complex with PHB2/REA, NcoR, HDAC1, SRC-1. The assay can be described thus: Chromatin remodeling complex, immunoprecipitation of nuclear fraction. How it is done: KPL-3C cells temporarily transfected with an ERE-luciferase reporter vector were treated with the ERAP1-peptide in the concentrations shown in the figure. Then, immediately, the cells were stimulated with 10 nM E2 for 24 hours. TAM indicates the tamoxifen treatment. […] KPL-3C cells were treated for 24 hours with the ERAP1-peptide and/or E2. Then, the nuclear fraction was immunoprecipitated with anti-ERα antibody or an anti-PHB2 antibody.
(§1) FIG. 4-4 is a diagram illustrating that the ERAP1-peptide promotes nuclear translocation of PHB2. […] MCF-7 cells were treated with the ERAP1-peptide and/or 10 nM E2 for 24 hours. Then, the nuclear fraction was immunoprecipitated with anti-ERα antibody or an anti-PHB2 antibody. […] MCF-7 cells were treated with the ERAP1-peptide and/or E2 for 24 hours. Then, the cell lysate was immunoprecipitated with anti-PHB2 antibody. Subsequently, the HDAC activity in the immunoprecipitate was measured with a commercially available kit. The nuclear extract from the HeLa cells and PBS were used as a positive control (P) and as negative control (N), respectively.
As described in the item of “Western blotting analysis”, the cells were lysed with a 0.1% NP-40 lysis buffer. The cell lysate was precleaned using normal IgG and rec-Protein G Sepharose 4B (Zymed, San Francisco, Calif., USA) at 4° C. for 3 hours. […]

Assay [3] has as its system HDAC1. The assay is described as follows: Deacetylation (HDAC) assay of anti-PHB2 immunoprecipitate. The following applies: MCF-7, 24 hours. How it is done:
as §1
HDAC assay was performed using HDAC Fluorescent Activity Assay/Drug Discovery Kit (Enzo Life Sciences, Plymouth Meeting, Pa., USA) in accordance with the instruction of the manufacturer. MCF-7 cells were treated with E2 and/or the ERAP1 peptide(s) for 24 hours in a 6-well plate. Then, the cell extract was immunoprecipitated with anti-PHB2 antibody. Furthermore, the immunoprecipitated cell extract was incubated for 30 minutes in the presence of a substrate at 30° C. After the incubation, the reaction was stopped, and the fluorescence was analyzed with a microplate fluorometer (Infinite M200, Tecan, Mannedorf, Switzerland).

Assay [4] concerns ERα interaction with IGF-1Rβ, Shc; AKT and MAPK. The assay can be described thus: Non-genomic activation route, immunoblotting, KPL-3C. How it is done:
FIG. 9-1 is a diagram illustrating that ERAP1-peptide treatment suppresses the non-genomic activation route. […] The cell lysate of the ERα-positive breast cancer cell lines shown in the figure was subjected to immunoblotting analysis using the antibodies shown in the figure. […] KPL-3C cells were treated with the ERAP1-peptide and/or E2 for 24 hours. Then the nuclear fraction was immunoprecipitated with anti-ERα antibody.
FIG. 9-2 is a diagram illustrating that ERAP1-peptide treatment suppresses the non-genomic activation route. […] The cells (C and D) or BT474 cells (E) Were treated with the ERAP1-peptide. Then, the phosphorylation levels of Akt (C). MAPK (C) and ERα (D and E) were evaluated with Western blotting. The relative phosphorylation levels were quantified by densitometry analysis, and the ratio to the value at 0 hour for non-treated cells was calculated.

`CSCC[C@H](NC(=O)[C@H](CCC(N)=O)NC(=O)[C@H](CCCNC(=N)N)NC(=O)[C@H](CCCNC(=N)N)NC(=O)[C@H](CCCNC(=N)N)NC(=O)[C@H](CCCNC(=N)N)NC(=O)[C@H](CCCNC(=N)N)NC(=O)[C@H](CCCNC(=N)N)NC(=O)[C@H](CCCNC(=N)N)NC(=O)[C@H](CCCNC(=N)N)NC(=O)[C@H](CCCNC(=N)N)NC(=O)[C@H](CCCNC(=N)N)NC(=O)[C@@H](N)CCCNC(=N)N)C(=O)N[C@@H](CC(C)C)C(=O)N[C@@H](CO)C(=O)N[C@@H](CC(=O)O)C(=O)N[C@@H](CC(C)C)C(=O)N[C@H](C(=O)N[C@@H](CC(C)C)C(=O)N[C@@H](CCC(N)=O)C(=O)N[C@@H](CC(C)C)C(=O)N[C@@H](CCCNC(=N)N)C(=O)N[C@@H](CCC(N)=O)C(=O)N[C@@H](CCCNC(=N)N)C(=O)O)[C@@H](C)O` [ERAP1-peptide]: the “E2-dependent Ser phosphorylation of PHB2/REA, successive change” value in assay [1] (10 nM E2) was “recognized continuously from 1 hour to 24 hours”. Also, the “phosphorylation of Ser39 of nuclear-translocated PHB2/REA” value in assay [1] (10 nM E2 24 hours) is given as “recognized for the phosphorylation of Ser39”. Besides, the “interaction of ERα with transcription factors” value in assay [2] (KPL-3C cells) was “ERα recruited NcoR and HDAC1 to form a complex”. For the same compound, in assay [2] (MCF-7 cells), the “interaction of ERα with transcription factors” value was “the binding of ERα and SRC-1 decreased, whereas ERα interacted with PHB2/REA, and further recruited NcoR and HDAC1 to form a complex”. Also, the “activity of HDAC1” value in assay [3] was “accelerated dose-dependently”. Moreover, in assay [4], the “activations of AKT and MAPK” value was “activations of AKT and MAPK were suppressed”; the “binding of ERα and Shc and of ERα and IGF-1Rβ” value is “the binding of ERα and Shc and the binding of ERα and IGF-1Rβ were inhibited”.
